The subject of assay [1] is mice sensitized with oxazolone. The class given is in vivo, mouse. As to conditions: FIG. 1; peptides by implanted osmotic pump, 0.2 μg/hour for 7 days; ear measured 24 hours after oxazolone challenge; BALB/c mice. Here is the method:
Groups of 5 female inbred BALB/c mice (The Jackson Laboratory, Bar Harbor, Me.) were sensitized on the shaved abdominal skin with 2% oxazolone (100 μl) dissolved in acetone/olive oil [4:1 (vol/vol)] applied topically. Delayed type hypersensitivity (DTH) was elicited 5 days later by challenging the mice with 0.5% oxazolone in acetone/olive oil (10 μl given topically to each side of the ear). A constant area of the ear was measured immediately before and 24 hours after the challenge using a Mitutoyo engineer's micrometer. The percent inhibition of DTH is calculated as follows:
% Inhibition=[1-{(treated−negative control)/(positive control−negative control)}]×100.
The positive control is the DTH reaction to oxazolone elicited in sensitized mice without treatment. The negative control is the background swelling produced by the oxazolone antigen in naïve non-sensitized mice.
Peptides Nos. 1-5 were given to the mice by mini perfusion pumps (alzet osmotic pump model 2001), which contained the indicated peptide (40 μg; 200 μl). The pumps were implanted under the mouse skin one day before oxazolone sensitization and they released the peptide in a rate of 1 μl per hour (0.2 μg/hour) for 7 days.
Peptides Nos. 6-10 were given to the mice by subcutaneously injection (1 μg or 10 μg per mouse), every day, starting at one day before oxazolone sensitization and ending at day 5 post DTH initiation.

Assay [2] relates to T cells. Briefly: Chemotaxis assay: T cell migration toward SDF-1α. In kind it is cell-based. Particulars: concentration range 10-1000 ng/ml; SDF-1α 250 ng/ml; 3 hr. Here is the method: The migration of ^51-[Cr]-labeled T cells was examined in […] Transwell chemotaxis apparatus (6.5-mm diameter; Corning, N.Y.), consisting of two compartments separated by polycarbonate filters (5 μm pore size) pretreated (1 hr, 37° C.) with FN (25 μg/ml). ^51-[Cr]-labeled T cells (2×10^5 in 100 μl of RPMI containing 0.1% BSA and antibiotics), which were pre-incubated with the indicated concentrations of peptides (30 min, 37° C.), were added to the upper chambers. The bottom chambers contained 0.6 ml of the same media, with or without human Stromal cell-Derived Factor-1α (SDF-1α; 250 ng/ml). After incubation at 37° C. for 3 hr (7.5% CO2-humidified atmosphere), cells that had transmigrated into the lower wells were collected, centrifuged, and lysed (in 100 μl of distilled water containing 1 M NaOH and 0.1% Triton X-100), and the radioactivity in the resulting supernatants was determined with a γ-counter. The percentage (±SD) of cell migration was calculated as the radioactivity counts in the lysates of the lower chambers (representative of the migrating cells) divided by the total counts (representative of 2×10^5 cells).

Assay [3] has as its system anti-CD3 antibody induced TNFα secretion from T cells. Nature of the assay: TNFα secretion by anti-CD3 activated T cells. The class given is cell-based, human. As to conditions: peptide 100 ng/ml; 24 hours; ELISA; FIG. 7A. As to the method:
(§1) Human T cells were purified and maintained in culture (RPMI containing 10% FCS, 1% Pyruvate, 1% glutamine, 1% antibiotics, 7.5% CO2, humidified atmosphere) for 15 hr before they were transferred to RPMI and activated (2 hr, 37° C.) with the indicated concentrations of the peptides. The cells were then plated (1.5×10^6 cells/0.5 ml/well) in 24 wells plates (non-tissue culture grade) precoated with anti-CD3 mAb in order to stimulate the cells to secrete cytokines. After 24 hours, the supernatants were collected and their cytokine content (TNFα and IFNγ) was determined by ELISA using anti-IFNγ and anti TNFα mAb (Pharmingen; San Diego, Calif.) according to the manufacturer's instructions.

The test system of assay [4] is anti-CD3 antibody induced IFNγ secretion from T cells. Nature of the assay: IFNγ secretion by anti-CD3 activated T cells. As to conditions: 24 hours; ELISA; FIG. 7B. In kind it is cell-based, human. More on the design: concentration or dose not given beside the values. Here is the method: as §1
(In general: In an ELISA, binding on a coated surface is turned into a signal by an enzyme label.)

Assay [5] has as its system NF-κB. Briefly: Nuclear translocation of NF-κB in T cells (Western blot). The class given is cell-based. Particulars: peptide 100 ng/ml for 2 hours, then anti-CD3 mAb 24 hr; human T cells. The text has this: To address the modulatory role of the wound fluid peptides on the signal transduction cascade leading to regulation of T-cell secretion of TNF-α(and IFN-γ, the nuclear translocation of NF-κB was detected by probing nuclear and cytoplasmic T-cell extracts using mAb specific for the p65 subunit of NF-κB. The nuclear protein Lamin B was used as continuatively expressed control protein for the quantification of protein amounts.
Human T cells. T cells were purified from the peripheral blood of healthy human donors (Blood Bank; Tel-Hashomer, Israel). The whole blood was incubated (20 min, 22° C.) with RosetteSep™ human T-cell enrichment cocktail (StemCell Technologies, Vancouver, BC, Canada). The remaining unsedimented cells were then loaded onto Lymphocyte Separation Medium (ICN Biomedicals; Belgium), isolated by density centrifugation, and washed with PBS. The purified cells (>95% CD3^+ T cells) so obtained were cultured in RPMI containing antibiotics and 10% heat-inactivated FCS. Western blot analysis of T-cell nuclear extracts. Purified T cells (5×10^6) were preincubated with the peptides (100 ng/ml) for 2 hours (37° C. in a 7% CO2, humidified atmosphere). The cells were then replated in 24-well plates pre-coated with anti-CD3 mAb for 24 hr (37° C. in a 7% CO2, humidified atmosphere). T cells were lysed in 10 mM HEPES, 1.5 mM MgCl2, 1 mM dithiothreitol (DTT), 1 mM PMSF, 0.5% Nonidet P-40. The lysates were incubated on ice for 10 min and centrifuged at 2000 rpm for 10 min at 4° C. The supernatants (cytoplasmic extracts) were transferred and the pellet (nuclei) was suspended in buffer containing 30 mM HEPES, 450 mM NaCl, 25% Glycerol, 0.5 mM EDTA, 6 mM DTT, 12 mM MgCl2 1 mM PMSF, 10 μg/ml leupeptin, 10 μg/ml pepstatin, 1% phosphatase inhibitor cocktail, and the suspension was incubated on ice for 30 min. The lysates were cleared by centrifugation (30 min, 14×10^3 rpm, 4° C.), and the resulting supernatants analyzed for protein content. […]
For orientation: A western blot detects proteins with antibodies after separation by electrophoresis.

On to “WDNLEKETEGL [peptide No. 3, residues 96-106 of Apo A-I; identified in wound fluids, then synthesized]”, for which the “inhibition of DTH response” value in assay [1] is listed as roughly 40%. In addition, the “inhibition of T cell transmigration toward SDF-1α” value in assay [2] is given as “did not show a significant inhibition”. Also, in assay [3], the “inhibition of anti-CD3 antibody induced TNFα secretion from T cells” value is 50%. Also, the “inhibition of anti-CD3 antibody induced IFNγ secretion from T cells” value in assay [4] is given as 65%. Also, in assay [5], the “NF-κB translocation to the nucleus” value was “significant down-regulation”.

For the origin of these results see patent US20080311103A1, “Anti-Inflammatory Peptides and Methods of Use Thereof” (YEDA RESEARCH AND DEVELOPMENT CO. LTD. at THE WEIZMANN …, priority 2004, published 2008).
